Data taken from paper PMC4658182, “The Synthetic Antimicrobial Peptide 19-2.5 Interacts with Heparanase and Heparan Sulfate in Murine and Human Sepsis” (PLoS ONE, 2015).
Where two headings read alike, the source gives them in different places.

Key:
[1] = test system: murine cells; settings: cited from earlier work
Excerpt: The synthetic antimicrobial peptide 19–2.5 belongs to the class of synthetic anti-lipopolysaccharide peptides (SALP = synthetic anti-LPS peptides). […] Thus, we investigated the impact of peptide 19–2.5 on levels of circulating HS-fragments in vivo. […] We postulate two ways by which peptide 19–2.5 reduces levels of circulating HS-fragments in mice: […]

[2] = test system: pro-inflammatory cytokines; CD14; settings: CLP-mice, cited from earlier work
Excerpt: Several studies report an up to 10-fold increase of heparanase expression after stimulation with pro-inflammatory cytokines. […] Accordingly, we detected organ-specific differences of heparanase levels that m ...

[3] = test system: Gram-negative and Gram-positive bacteria as well as against viruses; settings: cited from earlier work
Excerpt: (§1) The synthetic antimicrobial peptide 19–2.5 belongs to the class of synthetic anti-lipopolysaccharide peptides (SALP = synthetic anti-LPS peptides). […] We recently reported that peptide 19–2.5 is able to decrease the inflammatory response in murine cells stimulated with both PAM ...

[4] = test system: mice; settings: cited from earlier work
Excerpt: as §1

[5] = Isothermal titration calorimetry, binding to HS-fragments; settings: ITC; for Ka binding constant / Kd / N stoichiometry of binding / ΔG Gibbs free energy / ΔS entropy change: 2 mM peptide titrated 20 times 1.5 μl into 100 μg/ml HS
Description: Isothermal titration calorimetry (ITC) experiments were performed as previously described. Briefly, the binding of peptide 19–2.5 to heparanase or HS-fragments was recorded by measuring the enthalpy change of the reaction at 37°C. For this, a total of 100 μg/ml heparanase (R&D Systems Europe Ltd., Abingdon, United Kingdom) and 200 μg/ml HS-fragments (H7640 Sigma-Aldrich, St. Louis, MO, USA) were dispersed into the calorimetric cell, and 2 mM peptide 19–2.5 was titrated to this dispersion stepwise in 3 μl portions. After exploring experiments, the concentration of HS was 100 μg/ml titrated with 1.5 μl of peptide 19–2.5 (2 mM) 20 times at 37°C.
Fig 5 Isothermal titration calorimetry (ITC). For the ITC experiments, 2 mM peptide 19–2.5 was titrated to this dispersion stepwise in 3 μl portions into (A) 200 μg/ml heparan sulfate-fragments (HS) and (B) 100 μg/ml heparanase (Hep). In each titration, the resulting heat signals P were recorded (peak downwards are exothermic, peaks upwards endothermic reactions) against time (min) and presented in the top parts of Fig 5A and 5B. The integrated enthalpy changes ΔH versus [peptide]:[HS-fragments] (A) and [peptide]:[heparanase] (B) concentration ratios of the single titrations are illustrated in the bottom parts of Fig 5A and 5B.

[6] = test system: heparanase; test: Relative heparanase mRNA expression in organs (qPCR), CLP septic mice; format: in vivo, murine; settings: 24 h after CLP
Description: The murine model of polymicrobial sepsis was divided into three steps as described before. Briefly, in a first step 12 NMRI mice underwent a catheterization procedure under general (isoflurane 1% to 2% in oxygen/air mix with a FiO2 of 0.3) and local (0.2 ml lidocaine 2%) anesthesia. A central vein catheter (PE-tube, self-made) was implanted in the jugular vein. After further local infiltration with lidocaine, the neck was closed by single suture. To prevent hypothermia all animals were kept on a heating pad throughout the surgical procedure. Mice were transferred back into the cage to rest for 48h. The i.v.-line was connected to the syringe pump at a rate of 100 μl/h (NaCl 0.9%).
In a second step, general and local anesthesia for cecal ligature and puncture (CLP) was performed as described above. The animal were transferred to the cage and reconnected with the i.v.-line. Depending on the group, peptide 19–2.5 infusion (20 μg/ml, 100 μl/h) or NaCl 0.9% infusion (100 μl/h) was started.
Finally, in a third step all animals were killed 24 h after CLP. Therefore, the animals were anesthetized as described above, brought to a prone position and the abdomen and thorax were opened. Blood was sampled in pre-citrated syringes. Directly after killing the animal under general anesthesia by cervical dislocation heart, liver, lung, kidney and spleen were snap-frozen in liquid […] until further procedures.
As described before, total RNA was extracted from snap-frozen tissue (RNeasy Mini Kit, Qiagen, Hilden, Germany) and reverse transcribed to cDNA (Quanti Tec, Rev Transcription Kit, Qiagen, Hilden, Germany). cDNA was analyzed by quantitative real-time PCR performed with Power SYBR Green PCR Master Mix on a StepOnePlus (all Applied Biosystems, Foster City, CA, USA) using a mouse specific primer (biomers, Ulm, Germany) for heparanase 5’-[…]-3’ (for) and 5’-[…]-3’ (rev). Beta-actin was used as an endogenous normalization control: 5’-[…]-3’ (for), 5’-CGG ATGTCAACGTCACACTT-3’ (rev). […]
All data are given as mean ± standard deviation (SD). As described recently, the PCR-derived mRNA expressions were analyzed using a relative expression software tool (REST, (http://www.gene-quantification.de/rest.html, rest-mcs-beta-9august 2006) performing a randomization test. This tool avoids assumptions on distributions and applies a pair wise fixed reallocation randomization test, which reallocates control and sample groups (= pair wise fixed reallocation). The expression ratios are calculated on the basis of the mean crossing point (CP) values for reference and target genes. We used a multiple t-test with Holm-Šídák correction when comparing differences between groups. […]

[7] = 37°C, 2 mM peptide in 3 μl portions into 200 μg/ml HS-fragments, Fig 5A

peptide 19–2.5: synthetic antimicrobial peptide 19–2.5 belongs to the class of synthetic anti-lipopolysaccharide peptides (SALP = synthetic anti-LPS peptides)
inflammatory response in murine cells stimulated with HS-fragments ([1]; stimulated with HS-fragments in vitro): able to decrease the inflammatory response in murine cells stimulated with HS-fragments in vitro | inflammatory response in murine cells stimulated with PAMPs and DAMPs ([1]; stimulated with both PAMPs and DAMPs): able to decrease the inflammatory response in murine cells stimulated with both PAMPs and DAMPs | mRNA expression of CD14 ([2]; differences between organs): decreases mRNA expression of CD14 | levels of pro-inflammatory cytokines [2]: decreases levels of pro-inflammatory cytokines in CLP-mice | anti-inflammatory activity [3]: shows anti-inflammatory activity against Gram-negative and Gram-positive bacteria as well as against viruses | protection from lethal septic shock [4]: protects mice from lethal septic shock | [Peptide 19–2.5]:[HS] weight ratio at saturation [5, 7]: ~0.6 | heat of reaction on titration to HS-fragments [5, 7]: high exothermic reaction | Ka binding constant ([5]; 37°C, experiment 1): 1.93e+06 M⁻¹ | Kd ([5]; 37°C, experiment 1): 518 nM | N stoichiometry of binding ([5]; 37°C, experiment 1): 0.511 w/w ratio | ΔG Gibbs free energy ([5]; 37°C, experiment 1): -8.918 kcal/mol | ΔS entropy change ([5]; 37°C, experiment 1): 4.46 cal/mol/K | Ka binding constant ([5]; 37°C, experiment 2): 1.52e+07 M⁻¹ | Kd ([5]; 37°C, experiment 2): 65.7 nM | N stoichiometry of binding ([5]; 37°C, experiment 2): 0.475 w/w ratio | ΔG Gibbs free energy ([5]; 37°C, experiment 2): -10.192 kcal/mol | ΔS entropy change ([5]; 37°C, experiment 2): 6.42 cal/mol/K | Ka binding constant ([5]; 37°C, experiment 3): 1.55e+07 M⁻¹ | Kd ([5]; 37°C, experiment 3): 64.5 nM | N stoichiometry of binding ([5]; 37°C, experiment 3): 0.547 w/w ratio | ΔG Gibbs free energy ([5]; 37°C, experiment 3): -10.201 kcal/mol | ΔS entropy change ([5]; 37°C, experiment 3): 10.8 cal/mol/K | Ka binding constant ([5]; 37°C, experiment 4): 1.2e+07 M⁻¹ | Kd ([5]; 37°C, experiment 4): 83.3 nM | N stoichiometry of binding ([5]; 37°C, experiment 4): 0.534 w/w ratio | ΔG Gibbs free energy ([5]; 37°C, experiment 4): -10.046 kcal/mol | ΔS entropy change ([5]; 37°C, experiment 4): 6.77 cal/mol/K | Ka binding constant ([5]; 37°C, mean of n = 4): 1.12e+07 M⁻¹ | N stoichiometry of binding ([5]; 37°C, mean of n = 4): 0.520 w/w ratio | ΔG Gibbs free energy ([5]; 37°C, mean of n = 4): -9.839 kcal/mol | ΔS entropy change ([5]; 37°C, mean of n = 4): 7.11 cal/mol/K | Kd ([5]; 37°C, mean of n = 4, read-out: Kd): 89.2 nM | titration curve shape with HS-fragments ([5]; Fig 5A): S-shaped curve with saturation characteristic for a complex formation | heparanase mRNA expression under peptide treatment ([6]; all investigated organ tissues (heart, liver, lung, kidney, spleen), CLP-mice, 20 μg/ml, 100 μl/h i.v., Fig 2): decreased heparanase mRNA expression in all investigated organ tissues | relative heparanase mRNA expression, untreated CLP-mice vs peptide-treated ([6]; kidney, increase in untreated CLP-mice vs peptide 19–2.5 (20 μg/ml, 100 μl/h i.v., n = 6 per group), normalized to ß-actin, mean ± SD, Fig 2E): 5.7±1.9 fold | relative heparanase mRNA expression, untreated CLP-mice vs peptide-treated ([6]; lung, liver, spleen, heart and kidney, result in words, 20 μg/ml, 100 μl/h i.v., n = 6 per group, Fig 2A–2E, **p < 0.01, ***p < 0.0001): significantly higher in untreated CLP-mice compared to mice treated with peptide 19–2.5 | relative heparanase mRNA expression, untreated CLP-mice vs peptide-treated ([6]; lung, increase in untreated CLP-mice vs peptide 19–2.5 (20 μg/ml, 100 μl/h i.v., n = 6 per group), normalized to ß-actin, mean ± SD, Fig 2A): 2.2±2.2 fold
